Results on 28 compounds are retold here after patent publication US20230091047A1 (priority 2019, published 2023).

Where two headings read alike, the source gives them in different places.

Series [1] deals with HBV (HepG2.117 cell line, inducibly HBV producing). The series is described as follows: Anti-HBV activity: intracellular HBV DNA by real-time PCR in HepG2.117 cells after 3 days of treatment. Format: cell-based, hepatitis B virus. An outline of the steps:
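Antiviral effect is expressed through intracellular HBV DNA levels, determined by real-time PCR with a virus-specific probe. These levels were measured after 3 days of treatment with compound dilutions, in HepG2.117 cells induced to replicate HBV.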
In general terms: Quantitative PCR measures a nucleic acid by following its amplification.

A short description of a further series: in vitro. Format: cell-based. The settings on record: human, HepG2 or HepG2.117 cells, ATPlite, mean value; for CC50 at 4 days: 4-days incubation (values marked with *). An outline of the steps:
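Luminescent ATP quantitation served as the viability endpoint following a 3- or 4-day incubation with test compounds.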
(ATP-based viability assays read luminescence as a measure of living cells.)

Where [2] appears, read: Hepatitis B virus, HepG2.117, 72 h, HepG2.117 cells, 3 days of treatment, intracellular HBV DNA by real-time PCR; mean value; read-out: EC50 (μM, mean value).
[3] abbreviates: 3-days incubation (unmarked values).
Where [4] appears, read: Hepatitis B virus, HepG2.117, 72 h, HepG2.117 cells, intracellular HBV DNA by real-time PCR, 3 days of treatment, mean value; read-out: EC50 (μM, mean value).
The mark [5] stands for this setting: 3-days incubation (not marked with *).

`CNC(=O)c1ccc(-n2c(N[C@@H](C)c3ccccc3F)nc3c(c2=O)C[C@@H](C)N(C(=O)c2ccc(Cl)c(Cl)c2)C3)cc1` [Compound C316, 4-[(6R)-7-(3,4-dichlorobenzoyl)-2-{[(1S)-1-(2-fluorophenyl)ethyl]amino}-6-methyl-4-oxo-5,6,7,8-tetrahydropyrido[3,4-d]pyrimidin-3(4H)-yl]-N-methylbenzamide]: the EC50 – broadly, the midpoint of the concentration-response curve – in series [1] (setting [2]) came out at 0.13 µM. Further, in “in vitro” (setting [3]), it took 27.8 µM to reach half-maximal cytotoxicity (CC50 at 3 days).

With `CNC(=O)c1ccc(-n2c(NC(C)c3ccc(C(F)(F)F)s3)nc3c(c2=O)C[C@@H](C)N(C(=O)c2ccc(Cl)c(Cl)c2)C3)cc1` (some centres unmarked) [Compound C596], the EC50 in series [1] (setting [4]) was 0.4 µM. Moreover, in “in vitro” (setting [5]), the CC50 (as a rule, the concentration that lowers cell viability or growth by half) at 3 days turned out to be 25.5 µM.

Consider `COC(=O)C12CC(n3c(NC(C)C)nc4c(c3=O)C[C@@H](C)N(C(=O)c3ccc(Cl)c(Cl)c3)C4)(C1)C2` [Compound C236], for which the EC50 in series [1] (setting [2]) is over 50 µM. In “in vitro” (setting [3]), the CC50 at 3 days is over 50 µM.

In the case of `CNC(=O)c1ccc(-n2c(N[C@@H]3CCCC3(C)C)nc3c(c2=O)C[C@@H](C)N(C(=O)c2ccc(Cl)c(Cl)c2)C3)cc1` (single isomer, unassigned) [Compound C318, 4-[(6R)-7-(3,4-dichlorobenzoyl)-2-{[(1*R)-2,2-dimethylcyclopentyl]amino}-6-methyl-4-oxo-5,6,7,8-tetrahydropyrido[3,4-d]pyrimidin-3(4H)-yl]-N-methylbenzamide], the EC50 in series [1] (setting [2]) is 0.68 µM. The compound also returned a cytotoxic concentration (CC50) at 3 days in “in vitro” (setting [3]) of 23.2 µM.

Take `CNC(=O)c1ccc(-n2c(N[C@H](C)C(C)(C)C)nc3c(c2=O)C[C@@H](C)N(C(=O)c2ccc(Cl)c(Cl)c2)C3)cc1` (single isomer, unassigned) [Compound C459a]: the EC50 in series [1] (setting [4]) is 0.44 µM. Further, the CC50 at 3 days in “in vitro” (setting [5]) is 31.9 µM.

In the case of `COc1ccccc1-n1c(NC(C)C)nc2c(c1=O)CCN(C(=O)c1ccc(Cl)c(Cl)c1)C2` [Compound C24, 7-(3,4-dichlorobenzoyl)-3-(2-methoxyphenyl)-2-[(propan-2-yl)amino]-5,6,7,8-tetrahydropyrido[3,4-d]pyrimidin-4(3H)-one], the concentration for a half-maximal effect (EC50) in series [1] (setting [2]) came out at 2.25 µM. Besides, the CC50 at 4 days in “in vitro” was over 50 µM.

As for `CNC(=O)c1ccc(-n2c(NC(C)C)nc3c(c2=O)C[C@@H](C)N(C(=O)c2ccc(Cl)c(Cl)c2)C3)c(C)c1` [Compound C300a, 4-[(6R)-7-(3,4-dichlorobenzoyl)-6-methyl-4-oxo-2-[(propan-2-yl)amino]-5,6,7,8-tetrahydropyrido[3,4-d]pyrimidin-3(4H)-yl]-N,3-dimethylbenzamide], the EC50 in series [1] (setting [2]) amounted to 0.06 µM. In addition, the cytotoxic concentration (CC50) at 3 days in “in vitro” (setting [3]) was over 50 µM.

For the compound `COc1ccccc1-n1c(NC(C)C2CC2)nc2c(c1=O)CCN(C(=O)c1ccc(Cl)c(Cl)c1)C2` (centres unmarked) [Compound C47, 2-[(1-cyclopropylethyl)amino]-7-(3,4-dichlorobenzoyl)-3-(2-methoxyphenyl)-5,6,7,8-tetrahydropyrido[3,4-d]pyrimidin-4(3H)-one], the EC50 in series [1] (setting [2]) is 2.68 µM. For the same compound, in “in vitro” (setting [3]), the cytotoxic concentration (CC50) at 3 days came out at 27.3 µM.

`CC(C)Nc1nc2c(c(=O)n1-c1ccc(-c3nccs3)cc1)C[C@@H](C)N(C(=O)c1ccc(Cl)c(Cl)c1)C2` [Compound C240, (6R)-7-(3,4-dichlorobenzoyl)-6-methyl-2-[(propan-2-yl)amino]-3-[4-(1,3-thiazol-2-yl)phenyl]-5,6,7,8-tetrahydropyrido[3,4-d]pyrimidin-4(3H)-one]: the 50% effective concentration (EC50) in series [1] (setting [2]) amounted to 0.13 µM. The compound also came in with a CC50 at 3 days in “in vitro” (setting [3]) of over 50 µM.

Consider `COc1ccc(CNc2nc3c(c(=O)n2-c2ccc(C(N)=O)cc2)CCN(C(=O)c2ccc(Cl)c(Cl)c2)C3)cc1` [Compound C149, 4-[7-(3,4-dichlorobenzoyl)-2-{[(4-methoxyphenyl)methyl]amino}-4-oxo-5,6,7,8-tetrahydropyrido[3,4-d]pyrimidin-3(4H)-yl]benzamide], for which the EC50 in series [1] (setting [2]) was determined as 1.5 µM. In “in vitro” (setting [3]), this compound came in with a CC50 at 3 days of 23.2 µM.

In the case of `CNC(=O)c1ccc(-n2c(NC(C)C)nc3c(c2=O)C[C@@H](C)N(C(=O)c2cc4cc(Cl)ccc4s2)C3)cc1` [Compound C579], the EC50 in series [1] (setting [4]) came to 0.12 µM. The compound further registered a CC50 at 3 days in “in vitro” (setting [5]) of over 50 µM.

For `CNC(=O)c1ccc(-n2c(N[C@H]3C[C@H]4CC[C@]3(C)C4(C)C)nc3c(c2=O)C[C@@H](C)N(C(=O)c2ccc(Cl)c(Cl)c2)C3)cc1` [Compound C621], the EC50 in series [1] (setting [4]) was over 2.5 µM. Further, in the series “in vitro” (setting [5]), the midpoint of cytotoxicity, the CC50 at 3 days, lay at 5.99 µM.

Consider `CNC(=O)c1cc(-n2c(N[C@@H](C)c3ccc(C(F)(F)F)cc3)nc3c(c2=O)C[C@@H](C)N(C(=O)c2ccc(Cl)c(Cl)c2)C3)n(C)n1` [Compound C534], for which the EC50 in series [1] (setting [4]) was determined as 0.14 µM. In the series “in vitro” (setting [5]), the CC50 at 3 days was over 50 µM.

As for `CNC(=O)c1ccc(-n2c(N[C@@H](C)c3ccc4[nH]ncc4c3)nc3c(c2=O)C[C@@H](C)N(C(=O)c2ccc(Cl)c(Cl)c2)C3)cc1` (single isomer, unassigned) [Compound C529b], in series [1] (setting [4]), the EC50 came to 0.72 µM. Further, in the series “in vitro” (setting [5]), the CC50 at 3 days was over 50 µM.

Take `COc1ccc(CNc2nc3c(c(=O)[nH]2)CCN(C(=O)c2ccc(Br)c(C#N)c2)C3)cc1` [Compound C105, 2-bromo-5-[2-{[(4-methoxyphenyl)methyl]amino}-4-oxo-4,5,6,8-tetrahydropyrido[3,4-d]pyrimidine-7(3H)-carbonyl]benzonitrile]: in series [1] (setting [2]), the EC50 stood at 6.81 µM. The compound also gave a CC50 at 3 days in “in vitro” (setting [3]) of over 50 µM.

For the compound `CNC(=O)c1ccc(-n2c(NC(C)C)nc3c(c2=O)C[C@@H](C)N(C(=O)c2ccc4nnn(C)c4c2)C3)cc1` [Compound C474], the EC50 in series [1] (setting [4]) was over 25 µM. The compound further registered a 50% cytotoxic concentration (CC50) at 3 days in the series “in vitro” (setting [5]) of over 50 µM.

With `CNC(=O)c1ccc(-n2c(N3CCCCCC3)nc3c(c2=O)C[C@@H](C)N(C(=O)c2ccc(Cl)c(Cl)c2)C3)cc1` [Compound C467], in series [1] (setting [4]), the concentration for a half-maximal effect (EC50) is 0.1 µM. In addition, the CC50 at 3 days in the series “in vitro” (setting [5]) was 30 µM.

In the case of `COc1ccccc1-n1c(NCc2ccccn2)nc2c(c1=O)CCN(C(=O)c1ccc(Cl)c(Cl)c1)C2` [Compound C12, 7-(3,4-dichlorobenzoyl)-3-(2-methoxyphenyl)-2-{[(pyridin-2-yl)methyl]amino}-5,6,7,8-tetrahydropyrido[3,4-d]pyrimidin-4(3H)-one], in series [1] (setting [2]), the EC50 is 5.95 µM. In the series “in vitro”, this compound had a 50% cytotoxic concentration (CC50) at 4 days of over 50 µM.

Turning to `CC(C)Nc1nc2c(c(=O)n1-c1ccc(S(C)(=O)=O)cc1)CCN(C(=O)c1nc3ccccc3o1)C2` [Compound C362], the EC50 in series [1] (setting [2]) is over 50 µM. In the series “in vitro” (setting [3]), this compound gave a CC50 at 3 days of over 50 µM.

Take `CNC(=O)c1ccc(-n2c(N[C@@H](C)c3ccccc3OC)nc3c(c2=O)C[C@@H](C)N(C(=O)c2ccc(Cl)c(Cl)c2)C3)cc1` (single isomer, unassigned) [Compound C402b]: the concentration for a half-maximal effect (EC50) in series [1] (setting [4]) turned out to be 0.08 µM. Besides, in the series “in vitro” (setting [5]), the CC50 at 3 days is 18.8 µM.

Consider `CNC(=O)c1ccc(-n2c(NC(C)(C)C)nc3c(c2=O)C[C@@H](C)N(C(=O)c2ccc(Cl)c(Cl)c2)C3)cc1` [Compound C269, 4-[(6R)-2-(tert-butylamino)-7-(3,4-dichlorobenzoyl)-6-methyl-4-oxo-5,6,7,8-tetrahydropyrido[3,4-d]pyrimidin-3(4H)-yl]-N-methylbenzamide], for which the EC50 in series [1] (setting [2]) is 0.05 µM. In “in vitro” (setting [3]), this compound displayed a CC50 at 3 days of over 50 µM.

With `CNC(=O)c1ccc(-n2c(NC(C)c3ccc(OC)cc3)nc3c(c2=O)C[C@@H](C)N(C(=O)c2ccc(Cl)c(Cl)c2)C3)cc1` (stereo partly drawn) [Compound C346, 4-[(6R)-7-(3,4-dichlorobenzoyl)-2-{[1-(4-methoxyphenyl)ethyl]amino}-6-methyl-4-oxo-5,6,7,8-tetrahydropyrido[3,4-d]pyrimidin-3(4H)-yl]-N-methylbenzamide], in series [1] (setting [2]), the EC50 stood at 0.13 µM. In addition, the CC50 at 3 days in “in vitro” (setting [3]) is 36.3 µM.

For `COc1ccc(CN(CCCO)c2nc3c(c(=O)[nH]2)CCN(C(=O)c2ccc(Cl)c(Cl)c2)C3)cc1` [Compound C90, 7-(3,4-dichlorobenzoyl)-2-{(3-hydroxypropyl)[(4-methoxyphenyl)methyl]amino}-5,6,7,8-tetrahydropyrido[3,4-d]pyrimidin-4(3H)-one], the EC50 in series [1] (setting [2]) came to 8 µM. In the series “in vitro” (setting [3]), this compound had a CC50 at 3 days of 21.2 µM.

On to `CNC(=O)c1ccc(-n2c(NC(C)C)nc3c(c2=O)C[C@@H](C)N(C(=O)c2cc(C)c(C#N)c(C)c2)C3)cc1` [Compound C506], for which the EC50 in series [1] (setting [4]) amounted to 0.94 µM. In addition, in the series “in vitro” (setting [5]), the cytotoxic concentration (CC50) at 3 days was over 50 µM.

Regarding `CNC(=O)c1ccc(-n2c(NC(C)C)nc3c(c2=O)C[C@@H](C)N(C(=O)c2cc(Br)c4nccn4c2)C3)cc1` [Compound C495], the concentration for a half-maximal effect (EC50) in series [1] (setting [4]) was over 25 µM. The compound also gave a CC50 at 3 days in “in vitro” (setting [5]) of over 50 µM.

Regarding `CNC(=O)c1ccc(-n2c(N[C@H](C)c3ccc(OC)cc3)nc3c(c2=O)C[C@@H](C)N(C(=O)c2ccc(Cl)c(Cl)c2)C3)cc1` (single isomer, unassigned) [Compound C347a], the half-maximal effective concentration (EC50) in series [1] (setting [4]) was 0.1 µM. This compound also yielded a CC50 at 3 days in “in vitro” (setting [5]) of 35.1 µM.

Regarding `C#C[C@H]1CCCN1c1nc2c(c(=O)n1-c1ccc(C(=O)NC)cc1)C[C@@H](C)N(C(=O)c1ccc(Cl)c(Cl)c1)C2` (single isomer, unassigned) [Compound C350, 4-[(6R)-7-(3,4-dichlorobenzoyl)-2-[(2*R)-2-ethynylpyrrolidin-1-yl]-6-methyl-4-oxo-5,6,7,8-tetrahydropyrido[3,4-d]pyrimidin-3(4H)-yl]-N-methylbenzamide], in series [1] (setting [2]), the EC50 was found to be 0.23 µM. The compound further came in with a CC50 at 3 days in the series “in vitro” (setting [3]) of over 50 µM.

In the case of `CNC(=O)c1ccc(-n2c(Nc3ccon3)nc3c(c2=O)C[C@@H](C)N(C(=O)c2ccc(Cl)c(Cl)c2)C3)cc1` [Compound C278, 4-[(6R)-7-(3,4-dichlorobenzoyl)-6-methyl-2-[(1,2-oxazol-3-yl)amino]-4-oxo-5,6,7,8-tetrahydropyrido[3,4-d]pyrimidin-3(4H)-yl]-N-methylbenzamide], the EC50 in series [1] (setting [2]) worked out at 11 µM. This compound registered a CC50 at 3 days in “in vitro” (setting [3]) of over 50 µM.
